{"source": "PubChem BioAssay AID286", "about": "(DTP/NCI, 2004)", "system": "BDF1 mice, M5076 sarcoma ip, median survival T/C", "assay": "NCI In Vivo Anticancer Drug Screen. Data for tumor model Sarcoma M5076 (intraperitoneal) in B6D2F1 (BDF1) mice", "settings": "endpoint: median survival time, higher = longer survival", "procedure": "The antitumor activity of compounds was measured in mice bearing transplantable tumors. Survival or tumor size were measured and the results are expressed as the measurement made in the treated group (T) divided by the measurement made in the vehicle treated control group (C). The tumor model used in this assay is Sarcoma M5076 (intraperitoneal) in B6D2F1 (BDF1) mice", "note": "Where “and” joins values, the source holds several entries; their conditions need not be identical. Equal values may be shown once. Inconclusive results and toxic doses are left out.", "data": [{"smiles": "COc1cccc2c1C(=O)c1c(O)c3c(c(O)c1C2=O)C[C@@](O)(C(=O)CO)C[C@@H]3OC1CC(N)C(O)C(C)O1", "note": "(stereo partly drawn)", "values": [{"measurement": "T/C", "setting": "dose: 0.5 mg/kg/injection, schedule: Q04DX005 (ip), vehicle: saline", "result": "196 % of control"}, {"measurement": "T/C", "setting": "dose: 0.75 mg/kg/injection, schedule: Q04DX005 (ip), vehicle: saline", "result": "204 % of control"}, {"measurement": "T/C", "setting": "dose: 1.0 mg/kg/injection, schedule: Q04DX005 (ip), vehicle: saline", "result": "197 % of control"}, {"measurement": "T/C", "setting": "dose: 1.5 mg/kg/injection, schedule: Q01DX007 (ip), vehicle: saline", "result": "171 % of control"}, {"measurement": "T/C", "setting": "dose: 1.5 mg/kg/injection, schedule: Q04DX005 (ip), vehicle: saline", "result": "277 % of control"}, {"measurement": "T/C", "setting": "dose: 2.0 mg/kg/injection, schedule: Q04DX004 (ip), vehicle: saline", "result": "160 % of control"}, {"measurement": "T/C", "setting": "dose: 2.0 mg/kg/injection, schedule: Q04DX005 (ip), vehicle: saline", "result": "401 % of control"}, {"measurement": "T/C", "setting": "dose: 2.1 mg/kg/injection, schedule: Q01DX007 (ip), vehicle: saline", "result": "176 % of control"}, {"measurement": "T/C", "setting": "dose: 3.0 mg/kg/injection, schedule: Q01DX007 (ip), vehicle: saline", "result": "216 % of control"}, {"measurement": "T/C", "setting": "dose: 3.0 mg/kg/injection, schedule: Q04DX005 (ip), vehicle: saline", "result": "308 % of control"}, {"measurement": "T/C", "setting": "dose: 3.4 mg/kg/injection, schedule: Q04DX003 (ip), vehicle: saline", "result": "152 % of control"}, {"measurement": "T/C", "setting": "dose: 4.0 mg/kg/injection, schedule: Q04DX004 (ip), vehicle: saline", "result": "190 % of control"}, {"measurement": "T/C", "setting": "dose: 4.0 mg/kg/injection, schedule: Q04DX005 (ip), vehicle: saline", "result": "208 % of control"}, {"measurement": "T/C", "setting": "dose: 5.0 mg/kg/injection, schedule: Q04DX003 (ip), vehicle: saline", "result": "176 % of control"}, {"measurement": "T/C", "setting": "dose: 6.0 mg/kg/injection, schedule: Q04DX005 (ip), vehicle: saline", "result": "308 % of control"}, {"measurement": "T/C", "setting": "dose: 7.0 mg/kg/injection, schedule: Q01DX001 (ip), vehicle: saline", "result": "159 % of control"}, {"measurement": "T/C", "setting": "dose: 7.5 mg/kg/injection, schedule: Q04DX003 (ip), vehicle: saline", "result": "120 % of control"}, {"measurement": "T/C", "setting": "dose: 8.0 mg/kg/injection, schedule: Q04DX004 (ip), vehicle: saline", "result": "190 % of control"}, {"measurement": "T/C", "setting": "dose: 10.0 mg/kg/injection, schedule: Q01DX001 (ip), vehicle: saline", "result": "159 % of control"}, {"measurement": "T/C", "setting": "dose: 15.0 mg/kg/injection, schedule: Q01DX001 (ip), vehicle: saline", "result": "185 % of control"}]}, {"smiles": "C=CCOc1cc2c(cc1C(C)c1ccc(OC)cc1)OCO2", "note": "(stereo not drawn)", "values": [{"measurement": "T/C", "setting": "dose: 25.0 mg/kg/injection, schedule: Q04DX004 (ip), vehicle: Klucel (hydroxypropylcellulose) (HPC)", "result": "104 % of control"}, {"measurement": "T/C", "setting": "dose: 50.0 mg/kg/injection, schedule: Q04DX004 (ip), vehicle: Klucel (hydroxypropylcellulose) (HPC)", "result": "118 % of control"}, {"measurement": "T/C", "setting": "dose: 100.0 mg/kg/injection, schedule: Q04DX004 (ip), vehicle: Klucel (hydroxypropylcellulose) (HPC)", "result": "102 % of control"}, {"measurement": "T/C", "setting": "dose: 200.0 mg/kg/injection, schedule: Q04DX004 (ip), vehicle: Klucel (hydroxypropylcellulose) (HPC)", "result": "118 % of control"}, {"measurement": "T/C", "setting": "dose: 400.0 mg/kg/injection, schedule: Q04DX004 (ip), vehicle: Klucel (hydroxypropylcellulose) (HPC)", "result": "214 % of control"}]}, {"smiles": "COC(=O)[C@@]12OC[C@]34[C@H]([C@@H](O)[C@@H]1O)[C@@]1(C)CC(=O)C(O)=C(C)[C@@H]1C[C@H]3OC(=O)[C@H](OC(=O)/C=C(\\C)C(C)C)[C@@H]24", "values": [{"measurement": "T/C", "setting": "dose: 0.12 mg/kg/injection, schedule: Q04DX004 (ip), vehicle: saline", "result": "104 % of control and 107 % of control and 113 % of control"}, {"measurement": "T/C", "setting": "dose: 0.12 mg/kg/injection, schedule: Q04DX005 (ip), vehicle: saline", "result": "108 % of control (2×) and 116 % of control"}, {"measurement": "T/C", "setting": "dose: 0.13 mg/kg/injection, schedule: Q04DX004 (ip), vehicle: saline", "result": "111 % of control and 114 % of control"}, {"measurement": "T/C", "setting": "dose: 0.13 mg/kg/injection, schedule: Q04DX005 (ip), vehicle: saline", "result": "106 % of control and 114 % of control"}]}, {"smiles": "O=C(O)c1ccc(C(=O)O)c(C(=O)O)c1.[NH-]C1CCCCC1[NH-].[Pt+2]", "values": [{"measurement": "T/C", "setting": "dose: 3.11 mg/kg/injection, schedule: Q04DX005 (ip), vehicle: sodium bicarbonate", "result": "206 % of control"}, {"measurement": "T/C", "setting": "dose: 5.18 mg/kg/injection, schedule: Q04DX005 (ip), vehicle: sodium bicarbonate", "result": "181 % of control"}, {"measurement": "T/C", "setting": "dose: 8.64 mg/kg/injection, schedule: Q04DX005 (ip), vehicle: sodium bicarbonate", "result": "216 % of control"}, {"measurement": "T/C", "setting": "dose: 14.4 mg/kg/injection, schedule: Q04DX005 (ip), vehicle: sodium bicarbonate", "result": "245 % of control"}, {"measurement": "T/C", "setting": "dose: 24.0 mg/kg/injection, schedule: Q04DX005 (ip), vehicle: sodium bicarbonate", "result": "381 % of control"}, {"measurement": "T/C", "setting": "dose: 40.0 mg/kg/injection, schedule: Q04DX005 (ip), vehicle: sodium bicarbonate", "result": "87 % of control"}]}, {"smiles": "CN(C)CCN1C(=O)c2cccc3cc(N)cc(c23)C1=O", "values": [{"measurement": "T/C", "setting": "dose: 4.5 mg/kg/injection, schedule: Q04DX004 (ip), vehicle: acid diluted with saline", "result": "109 % of control"}, {"measurement": "T/C", "setting": "dose: 9.0 mg/kg/injection, schedule: Q04DX004 (ip), vehicle: acid diluted with saline", "result": "107 % of control"}, {"measurement": "T/C", "setting": "dose: 18.0 mg/kg/injection, schedule: Q04DX004 (ip), vehicle: acid diluted with saline", "result": "115 % of control"}]}, {"smiles": "COc1cc2cc3c(c(O)c2c(O)c1/C=C/C(C)C)C(=O)CC(C)(OC(C)=O)C3", "note": "(stereo not drawn)", "values": [{"measurement": "T/C", "setting": "dose: 0.31 mg/kg/injection, schedule: Q01DX009 (ip), vehicle: Klucel (hydroxypropylcellulose) (HPC)", "result": "111 % of control"}, {"measurement": "T/C", "setting": "dose: 0.63 mg/kg/injection, schedule: Q01DX009 (ip), vehicle: Klucel (hydroxypropylcellulose) (HPC)", "result": "108 % of control and 115 % of control"}, {"measurement": "T/C", "setting": "dose: 1.25 mg/kg/injection, schedule: Q01DX009 (ip), vehicle: Klucel (hydroxypropylcellulose) (HPC)", "result": "111 % of control and 119 % of control"}]}, {"smiles": "C1CCC(NC2CCCCC2)CC1", "values": [{"measurement": "T/C", "setting": "dose: 25.0 mg/kg/injection, schedule: Q04DX004 (ip), vehicle: saline", "result": "102 % of control"}, {"measurement": "T/C", "setting": "dose: 50.0 mg/kg/injection, schedule: Q04DX004 (ip), vehicle: saline", "result": "98 % of control"}, {"measurement": "T/C", "setting": "dose: 100.0 mg/kg/injection, schedule: Q04DX004 (ip), vehicle: saline", "result": "100 % of control"}, {"measurement": "T/C", "setting": "dose: 200.0 mg/kg/injection, schedule: Q04DX004 (ip), vehicle: saline", "result": "105 % of control"}, {"measurement": "T/C", "setting": "dose: 400.0 mg/kg/injection, schedule: Q04DX004 (ip), vehicle: saline", "result": "105 % of control"}]}, {"smiles": "CCC/C=C/C=C/C(=O)OC1/C(=C/C(=O)OC)CC2CC(C(C)O)OC(=O)CC(O)CC3CC(OC(C)=O)C(C)(C)C(O)(CC4C/C(=C/C(=O)OC)CC(/C=C/C(C)(C)C1(O)O2)O4)O3", "note": "(stereo not drawn)", "values": [{"measurement": "T/C", "setting": "dose: 20.0 micrograms/kg/injection, schedule: Q01DX009 (ip), vehicle: saline + Tween-80 + alcohol", "result": "158 % of control"}, {"measurement": "T/C", "setting": "dose: 40.0 micrograms/kg/injection, schedule: Q01DX009 (ip), vehicle: saline + Tween-80 + alcohol", "result": "168 % of control"}, {"measurement": "T/C", "setting": "dose: 80.0 micrograms/kg/injection, schedule: Q01DX009 (ip), vehicle: saline + Tween-80 + alcohol", "result": "160 % of control"}]}, {"smiles": "CC(=O)C[n+]1ccc(C)cc1Sc1ccccc1C", "values": [{"measurement": "T/C", "setting": "dose: 12.5 mg/kg/injection, schedule: Q04DX004 (ip), vehicle: saline with Tween-80", "result": "104 % of control"}, {"measurement": "T/C", "setting": "dose: 25.0 mg/kg/injection, schedule: Q04DX004 (ip), vehicle: saline with Tween-80", "result": "98 % of control"}, {"measurement": "T/C", "setting": "dose: 50.0 mg/kg/injection, schedule: Q04DX004 (ip), vehicle: saline with Tween-80", "result": "92 % of control"}, {"measurement": "T/C", "setting": "dose: 100.0 mg/kg/injection, schedule: Q04DX004 (ip), vehicle: saline with Tween-80", "result": "94 % of control"}]}]}
